From the supplement of paper PMC10307832

Legend:
Test in all cases: relative viability (nuclei count vs DMSO), 5 days (fraction); higher = more cells survive
ChaGo-K-1 = system: ChaGo-K-1
How it was run: (§1)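 Lung cancer cell lines in 1536-well plates were dosed by pin tool the day after seeding, either with one drug alone or with a fixed anchor-drug dose plus five library-drug doses (not always all listed) in √10 steps. After 5 days, cells were fixed and their nuclei stained in one step (final 0.05% Triton X-100, 1% formaldehyde, 1 ug/ml Hoechst), then counted on 4× images. Relative viability is the nuclei count in treated wells divided by that in vehicle wells. Values are medians of duplicate plates.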

EMC-BAC-2 = system: EMC-BAC-2
How it was run: as §1

EPLC-272H = system: EPLC-272H
How it was run: as §1

H3255 = system: H3255
How it was run: as §1

HCC-44 = system: HCC-44
How it was run: as §1

HCC-827 = system: HCC-827
How it was run: as §1

LCLC-103H = system: LCLC-103H
How it was run: as §1

LCLC-97TM1 = system: LCLC-97TM1
How it was run: as §1

NCI-H1355 = system: NCI-H1355
How it was run: as §1

NCI-H1395 = system: NCI-H1395
How it was run: as §1

NCI-H1651 = system: NCI-H1651
How it was run: as §1

NCI-H1793 = system: NCI-H1793
How it was run: as §1

NCI-H1944 = system: NCI-H1944
How it was run: as §1

NCI-H1993 = system: NCI-H1993
How it was run: as §1

NCI-H2085 = system: NCI-H2085
How it was run: as §1

NCI-H2087 = system: NCI-H2087
How it was run: as §1

NCI-H23 = system: NCI-H23
How it was run: as §1

NCI-H2405 = system: NCI-H2405
How it was run: as §1

NCI-H322M = system: NCI-H322M
How it was run: as §1

NCI-H520 = system: NCI-H520
How it was run: as §1

NCI-H650 = system: NCI-H650
How it was run: as §1

SK-MES-1 = system: SK-MES-1
How it was run: as §1

UMC-11 = system: UMC-11
How it was run: as §1

## C[C@@H]1CN(CC(=O)Nc2ccc3c(c2)Cc2cccc(-c4cc(=O)cc(N5CCOCC5)o4)c2S3)C[C@H](C)O1 + CC(=O)Nc1cccc(-n2c(=O)n(C3CC3)c(=O)c3c(Nc4ccc(I)cc4F)n(C)c(=O)c(C)c32)c1 [Trametinib] (partner 0.02 µM)
ChaGo-K-1; first compound 0.04 µM
  relative viability: 0.868
ChaGo-K-1; first compound 0.1265 µM
  relative viability: 0.859
ChaGo-K-1; first compound 0.4 µM
  relative viability: 0.879
ChaGo-K-1; first compound 4 µM
  relative viability: 0.871
EMC-BAC-2; first compound 0.04 µM
  relative viability: 0.891
EMC-BAC-2; first compound 0.1265 µM
  relative viability: 0.892
EMC-BAC-2; first compound 0.4 µM
  relative viability: 0.782
EMC-BAC-2; first compound 4 µM
  relative viability: 0.688
EPLC-272H; first compound 0.04 µM
  relative viability: 0.281
EPLC-272H; first compound 0.1265 µM
  relative viability: 0.289
EPLC-272H; first compound 0.4 µM
  relative viability: 0.281
EPLC-272H; first compound 4 µM
  relative viability: 0.263
H3255; first compound 0.04 µM
  relative viability: 0.584
H3255; first compound 0.1265 µM
  relative viability: 0.601
H3255; first compound 0.4 µM
  relative viability: 0.473
H3255; first compound 4 µM
  relative viability: 0.437
HCC-44; first compound 0.04 µM
  relative viability: 1.05
HCC-44; first compound 0.1265 µM
  relative viability: 1.03
HCC-44; first compound 0.4 µM
  relative viability: 1.1
HCC-44; first compound 4 µM
  relative viability: 1.03
HCC-827; first compound 0.04 µM
  relative viability: 0.541
HCC-827; first compound 0.1265 µM
  relative viability: 0.51
HCC-827; first compound 0.4 µM
  relative viability: 0.491
HCC-827; first compound 4 µM
  relative viability: 0.513
LCLC-103H; first compound 0.04 µM
  relative viability: 0.668
LCLC-103H; first compound 0.1265 µM
  relative viability: 0.629
LCLC-103H; first compound 0.4 µM
  relative viability: 0.68
LCLC-103H; first compound 4 µM
  relative viability: 0.693
LCLC-97TM1; first compound 0.1265 µM
  relative viability: 0.165
LCLC-97TM1; first compound 0.4 µM
  relative viability: 0.165
LCLC-97TM1; first compound 4 µM
  relative viability: 0.175
NCI-H1355; first compound 0.04 µM
  relative viability: 0.452
NCI-H1355; first compound 0.1265 µM
  relative viability: 0.405
NCI-H1355; first compound 0.4 µM
  relative viability: 0.383
NCI-H1355; first compound 4 µM
  relative viability: 0.401
NCI-H1395; first compound 0.1265 µM
  relative viability: 1.11
NCI-H1395; first compound 0.4 µM
  relative viability: 0.824
NCI-H1395; first compound 4 µM
  relative viability: 0.97
NCI-H1651; first compound 0.04 µM
  relative viability: 0.874
NCI-H1651; first compound 0.1265 µM
  relative viability: 0.894
NCI-H1651; first compound 0.4 µM
  relative viability: 0.83
NCI-H1651; first compound 4 µM
  relative viability: 0.629
NCI-H1793; first compound 0.04 µM
  relative viability: 0.349
NCI-H1793; first compound 0.1265 µM
  relative viability: 0.415
NCI-H1793; first compound 0.4 µM
  relative viability: 0.381
NCI-H1793; first compound 4 µM
  relative viability: 0.34
NCI-H1944; first compound 0.1265 µM
  relative viability: 0.412
NCI-H1944; first compound 0.4 µM
  relative viability: 0.4
NCI-H1944; first compound 4 µM
  relative viability: 0.425
NCI-H1993; first compound 0.04 µM
  relative viability: 0.521
NCI-H1993; first compound 0.1265 µM
  relative viability: 0.565
NCI-H1993; first compound 0.4 µM
  relative viability: 0.521
NCI-H1993; first compound 4 µM
  relative viability: 0.478
NCI-H2085; first compound 0.04 µM
  relative viability: 0.51
NCI-H2085; first compound 0.1265 µM
  relative viability: 0.532
NCI-H2085; first compound 0.4 µM
  relative viability: 0.483
NCI-H2085; first compound 4 µM
  relative viability: 0.465
NCI-H2087; first compound 0.04 µM
  relative viability: 0.248
NCI-H2087; first compound 0.1265 µM
  relative viability: 0.224
NCI-H2087; first compound 0.4 µM
  relative viability: 0.16
NCI-H2087; first compound 4 µM
  relative viability: 0.184
NCI-H23; first compound 0.04 µM
  relative viability: 0.356
NCI-H23; first compound 0.1265 µM
  relative viability: 0.348
NCI-H23; first compound 0.4 µM
  relative viability: 0.336
NCI-H23; first compound 4 µM
  relative viability: 0.286
NCI-H2405; first compound 0.04 µM
  relative viability: 0.7
NCI-H2405; first compound 0.1265 µM
  relative viability: 0.651
NCI-H2405; first compound 0.4 µM
  relative viability: 0.59
NCI-H2405; first compound 4 µM
  relative viability: 0.66
NCI-H322M; first compound 0.04 µM
  relative viability: 0.402
NCI-H322M; first compound 0.1265 µM
  relative viability: 0.535
NCI-H322M; first compound 0.4 µM
  relative viability: 0.502
NCI-H322M; first compound 4 µM
  relative viability: 0.501
NCI-H520; first compound 0.04 µM
  relative viability: 0.675
NCI-H520; first compound 0.1265 µM
  relative viability: 0.629
NCI-H520; first compound 0.4 µM
  relative viability: 0.626
NCI-H520; first compound 4 µM
  relative viability: 0.556
NCI-H650; first compound 0.04 µM
  relative viability: 0.954
NCI-H650; first compound 0.1265 µM
  relative viability: 1
NCI-H650; first compound 0.4 µM
  relative viability: 0.874
NCI-H650; first compound 4 µM
  relative viability: 0.697
SK-MES-1; first compound 0.04 µM
  relative viability: 0.652
SK-MES-1; first compound 0.1265 µM
  relative viability: 0.53
SK-MES-1; first compound 0.4 µM
  relative viability: 0.463
SK-MES-1; first compound 4 µM
  relative viability: 0.405
UMC-11; first compound 0.04 µM
  relative viability: 0.732
UMC-11; first compound 0.1265 µM
  relative viability: 0.757
UMC-11; first compound 0.4 µM
  relative viability: 0.868
UMC-11; first compound 4 µM
  relative viability: 0.65
